In PMC3236808 (2011):
pIC50: −log10 of the molar value.

Biological target: PRMT1 (Rattus norvegicus, UniProt Q63009)
Assay: scintillation proximity assay of 3H-SAM methylation of biotinylated H4 peptide
Type: biochemical

Chain of PRMT1 (Q63009 whole entry): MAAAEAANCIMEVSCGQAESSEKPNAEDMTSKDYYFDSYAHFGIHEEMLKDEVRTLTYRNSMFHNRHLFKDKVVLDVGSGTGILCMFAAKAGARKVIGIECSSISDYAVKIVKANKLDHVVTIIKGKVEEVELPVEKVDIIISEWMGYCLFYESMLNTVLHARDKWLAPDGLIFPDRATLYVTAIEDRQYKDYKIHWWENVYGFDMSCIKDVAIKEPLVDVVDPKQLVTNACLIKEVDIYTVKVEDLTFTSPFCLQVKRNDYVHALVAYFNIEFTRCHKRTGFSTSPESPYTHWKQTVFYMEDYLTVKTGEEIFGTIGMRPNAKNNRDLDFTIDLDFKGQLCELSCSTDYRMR

pIC50: 6.52
SMILES: Nc1ncnc2c1ncn2[C@@H]1O[C@H](CSCC[C@H](N)C(=O)O)[C@@H](O)[C@H]1O [SAH, S-adenosyl-L-homocysteine]
